Test results taken from patent US20210353631A1, “1,4-Benzoxazines for the Treatment of Cancers and Other Neurodegenerative Diseases” (Neugeneron LLC, priority 2020, published 2021).

Tested on: 451 kinases
Assay: Kinome profiling, count of kinases inhibited in the whole panel
Assay type: binding
Conditions: substantially defined as over 36% inhibition at 1 uM

In the case of `O=C1Nc2ccc(I)cc2/C1=C/c1cc(Br)c(O)c(Br)c1` [GW5074, reference compound], the “kinases inhibited substantially of the 451 kinases tested” value is reported as 21.
